Measured values taken from patent publication US10526292B2 (Parion Sciences, Inc., priority 2012, dated 2020).

tested on: ExLac rats; test: Tear volume in rat model of dry eye disease (lacrimal gland excision, ExLac Model); type: in vivo, Sprague Dawley rats; details: 5 μl test article solution per eye, tear volume by ZoneQuick thread over 6 h
Protocol: The effects of compounds on tear volume was assessed in a rat model of dry eye disease in which Sprague Dawley rats undergo surgical lacrimal gland excision (ExLac Model) to reduce normal tear volume. The lacrimal excision reduces normal tear volume by ˜50% (Table 2).
Both the ipsilateral and contralateral eyes were dosed with 5 μl of test article solution. Tear production was measured using the ZoneQuick cotton thread with impregnated phenol red dye. The folded end of the thread was held in the lateral-ventral conjunctival cul-de-sac for 10 seconds. The length of tear wicking onto the thread was determined by measuring the length of the thread that changes color from yellow to red. Use of a stereomicroscope was assist in the accurate measurement (recorded in millimeters) of the wicking/color change. Tear volume was assessed pre-dose, and 15, 30, 60, 120, and 360 minute post-dose. For reference, the effect of a saline vehicle is shown for ExLac rats and normal (no lacrimal excision surgery) rats.

SMILES	6 h Ocular Hydration (AUC0-6)
N=C(N)NCCCC[C@H](NC[C@H](O)[C@@H](O)[C@H](O)[C@H](O)CO)C(=O)NCCCN(CCCNC(=O)[C@H](CCCCNC(=N)N)NC[C@H](O)[C@@H](O)[C@H](O)[C@H](O)CO)CCOc1ccc(CCCCNC(=N)NC(=O)c2nc(Cl)c(N)nc2N)cc1 [Compound 42, (S,R,R,R,2S,2′S)—N,N′-(3,3′-(2-(4-(4-(3-(3,5-diamino-6-chloropyrazine-2-carbonyl)guanidino)butyl)phenoxy)ethylazanediyl)bis(propane-3,1-diyl))bis(6-guanidino-2-((2S,3R,4R,5R)-2,3,4,5,6-pentahydroxyhexylamino)hexanamide)]	52.3
COC(=O)NC(=N)NCCCC[C@@H](N)C(=O)NCCCN(CCCNC(=O)[C@H](N)CCCCNC(=N)N)CCOc1ccc(CCCCNC(=N)NC(=O)c2nc(Cl)c(N)nc2N)cc1 [Compound 46, 3,5-diamino-N—(N-(4-(4-((R)-11-amino-17-(3-((R)-2-amino-6-guanidinohexanamido)propyl)-5-imino-3,12-dioxo-2-oxa-4,6,13,17-tetraazanonadecan-19-yloxy)phenyl)butyl)carbamimidoyl)-6-chloropyrazine-2-carboxamide]	39.9
N=C(N)NCCCC[C@H](N)C(=O)NCCCN(CCCN)CCOc1ccc(CCCCNC(=N)NC(=O)c2nc(Cl)c(N)nc2N)cc1 [Compound 51, (S)-3,5-diamino-N—(N-(4-(4-(2-((3-(2-amino-6-guanidinohexanamido)propyl)(3-aminopropyl)amino)ethoxy)phenyl)butyl)carbamimidoyl)-6-chloropyrazine-2-carboxamide]	38.0
N=C(NCCCCc1ccc(OCCN(CCCNC(=O)[C@@H](N)CCCCNC(=O)[C@@H](N)CCCCN)CCCNC(=O)[C@@H](N)CCCCNC(=O)[C@@H](N)CCCCN)cc1)NC(=O)c1nc(Cl)c(N)nc1N [Compound 59, (S,2S,2′S)—N,N′-(3,3′-(2-(4-(4-(3-(3,5-diamino-6-chloropyrazine-2-carbonyl)guanidino)butyl)phenoxy)ethylazanediyl)bis(propane-3,1-diyl))bis(2-amino-6-((S)-2,6-diaminohexanamido)hexanamide)]	39.7
N=C(NCCCC[C@H](N)C(=O)NCCCN(CCCNC(=O)[C@@H](N)CCCCNC(=N)NC(=O)c1ccccc1)CCOc1ccc(CCCCNC(=N)NC(=O)c2nc(Cl)c(N)nc2N)cc1)NC(=O)c1ccccc1 [Compound 75, N,N′-((7S,19S)-7,19-diamino-13-(2-(4-(4-(3-(3,5-diamino-6-chloropyrazine-2-carbonyl)guanidino)butyl)phenoxy)ethyl)-1,25-diimino-8,18-dioxo-2,9,13,17,24-pentaazapentacosane-1,25-diyl)dibenzamide]	38.2
N=C(N)NCCCC[C@H](N)C(=O)NCCCN(CCCNC(=O)[C@@H](N)CCCCNC(=N)N)CCCN(CCCN(CCCNC(=O)[C@@H](N)CCCCNC(=N)N)CCCNC(=O)[C@@H](N)CCCCNC(=N)N)CCOc1ccc(CCCCNC(=N)NC(=O)c2nc(Cl)c(N)nc2N)cc1 [Compound 82, (2S,2′S,2″S,2′″S)—N,N′,N″,N′″-(3,3′,3″,3′″-(3,3′-(2-(4-(4-(3-(3,5-diamino-6-chloropyrazine-2-carbonyl)guanidino)butyl)phenoxy)ethylazanediyl)bis(propane-3,1-diyl))bis(azanetriyl)tetrakis(propane-3,1-diyl))tetrakis(2-amino-6-guanidinohexanamide)]	49.8
N=C(N)NCCCC[C@@H](N)C(=O)NCCCN(CCCNC(=O)[C@@H](N)CCCCNC(=N)N)CCOc1ccc(CCCCNC(=N)NC(=O)c2nc(Cl)c(N)nc2N)cc1 [Compound 90, 3,5-diamino-N—(N-(4-(4-(2-((3-((R)-2-amino-6-guanidinohexanamido)propyl)(3-((S)-2-amino-6-guanidinohexanamido)propyl)amino)ethoxy)phenyl)butyl)carbamimidoyl)-6-chloropyrazine-2-carboxamide]	49.0
